This note sets out measurements from patent US20260217767A1, “NOVEL A4B7 THIOETHER PEPTIDE DIMER ANTAGONISTS” (Protagonist Therapeutics, Inc., priority 2014, published 2026).

Each structure is given as a SMILES string. *1 amine or outer side, *2 acyl side, *3 side chain or, on linkers, in order; H or OH if unused. Where a SMILES comes first, the peptide text is derived from it. Bridges are numbered along the chain shown (N, C = ends). [ ]: non-standard residue; d: D form. Bip = N[C@@H](Cc1ccc(-c2ccccc2)cc1)C(=O)O; NMeR = CN[C@@H](CCCNC(=N)N)C(=O)O; β3hE = N[C@@H](CCC(=O)O)CC(=O)O; X1 = O=C(c1ccccc1C[*:2])[*:1]; Pen = CC(C)(S)[C@H](N)C(=O)O Some results are limits rather than exact numbers.

The target of the assay is T1, RPMI 8866 cells (Homo sapiens, UniProt P13612+P26010).
T1 sequence (P13612 34-1032): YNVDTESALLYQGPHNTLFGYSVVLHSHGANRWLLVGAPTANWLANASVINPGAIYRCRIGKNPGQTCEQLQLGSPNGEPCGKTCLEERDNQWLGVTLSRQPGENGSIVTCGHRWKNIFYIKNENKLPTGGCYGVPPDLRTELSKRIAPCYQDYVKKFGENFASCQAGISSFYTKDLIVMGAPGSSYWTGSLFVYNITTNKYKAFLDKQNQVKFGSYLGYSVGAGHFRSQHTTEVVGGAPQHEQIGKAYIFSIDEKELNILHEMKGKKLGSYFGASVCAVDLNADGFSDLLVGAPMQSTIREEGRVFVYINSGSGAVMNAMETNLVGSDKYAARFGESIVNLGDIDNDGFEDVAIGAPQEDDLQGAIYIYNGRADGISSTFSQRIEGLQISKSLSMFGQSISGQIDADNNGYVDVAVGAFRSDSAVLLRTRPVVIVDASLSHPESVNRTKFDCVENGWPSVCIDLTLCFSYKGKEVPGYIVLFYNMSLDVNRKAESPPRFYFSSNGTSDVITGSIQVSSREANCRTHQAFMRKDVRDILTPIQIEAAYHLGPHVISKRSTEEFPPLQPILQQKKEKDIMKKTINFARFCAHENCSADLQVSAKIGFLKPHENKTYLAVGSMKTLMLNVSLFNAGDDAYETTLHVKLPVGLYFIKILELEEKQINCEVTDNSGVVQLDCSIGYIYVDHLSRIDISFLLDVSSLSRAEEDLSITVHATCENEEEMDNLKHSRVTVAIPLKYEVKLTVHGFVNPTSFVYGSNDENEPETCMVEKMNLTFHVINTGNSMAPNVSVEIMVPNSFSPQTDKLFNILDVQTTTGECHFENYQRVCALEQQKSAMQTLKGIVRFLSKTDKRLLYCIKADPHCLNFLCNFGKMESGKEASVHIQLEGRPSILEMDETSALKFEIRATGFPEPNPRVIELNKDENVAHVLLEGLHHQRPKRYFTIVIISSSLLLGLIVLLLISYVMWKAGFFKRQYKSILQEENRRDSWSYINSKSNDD
T1 sequence (P26010 20-798): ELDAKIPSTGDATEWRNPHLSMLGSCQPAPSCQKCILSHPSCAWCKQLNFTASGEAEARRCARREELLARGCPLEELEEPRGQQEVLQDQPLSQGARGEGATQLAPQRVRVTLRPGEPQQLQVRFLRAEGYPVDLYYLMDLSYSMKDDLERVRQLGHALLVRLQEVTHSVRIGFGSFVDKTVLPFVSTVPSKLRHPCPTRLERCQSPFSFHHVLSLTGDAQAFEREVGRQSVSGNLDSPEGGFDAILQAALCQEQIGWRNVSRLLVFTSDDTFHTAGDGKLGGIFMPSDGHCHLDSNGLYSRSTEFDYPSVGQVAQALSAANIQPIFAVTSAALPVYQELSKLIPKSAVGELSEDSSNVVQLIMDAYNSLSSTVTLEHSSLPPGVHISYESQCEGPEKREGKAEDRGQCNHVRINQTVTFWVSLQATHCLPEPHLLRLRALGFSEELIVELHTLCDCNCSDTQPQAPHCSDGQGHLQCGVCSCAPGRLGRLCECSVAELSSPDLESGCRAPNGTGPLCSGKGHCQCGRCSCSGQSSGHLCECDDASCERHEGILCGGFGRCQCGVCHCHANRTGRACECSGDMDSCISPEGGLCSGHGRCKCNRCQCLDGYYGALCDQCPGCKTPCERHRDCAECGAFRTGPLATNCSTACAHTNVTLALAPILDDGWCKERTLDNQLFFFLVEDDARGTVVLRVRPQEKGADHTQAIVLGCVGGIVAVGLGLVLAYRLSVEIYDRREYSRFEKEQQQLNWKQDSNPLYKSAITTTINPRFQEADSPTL
Description: α4β7-MAdCAM Cell Adhesion Assay. The format is cell-based. To be noted: thioether monomer peptides, Table 6; read-out: Cell-Adhesion A4B7. Summed up: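 Peptide inhibition of adhesion measured with MAdCAM-1/Fc chimera immobilised at 200 ng/well and MnCl2-activated (1 mM) RPMI 8866 cells, 30-45 min at 37° C. Adherent cells remaining after three washes detected by MTT reduction at 570 nm, corrected for no-cell wells, giving dose response.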

For `CC(C)C[C@@H]1NC(=O)[C@H]([C@@H](C)O)NC(=O)[C@H](CC(=O)O)NC(=O)[C@H](CO)NC(=O)[C@H](CCCNC(=N)N)N(C)C(=O)c2ccccc2CSC(C)(C)[C@@H](C(=O)N[C@@H](Cc2c[nH]c3ccccc23)C(=O)N[C@H](CCC(=O)O)C(=O)N[C@@H](CO)C(N)=O)NC1=O` [compound 100] (HELM PEPTIDE1{[meR].S.D.T.L.[Pen].W.[dE].S.[am]}|CHEM1{[O=C(c1ccccc1C[*:2])[*:1]]}$PEPTIDE1,CHEM1,1:R1-1:R1|PEPTIDE1,CHEM1,6:R3-1:R2$$$V2.0), the IC50 lay in the range of 0.025 to 0.1 µM. The same measure for `CC(C)C[C@@H]1NC(=O)[C@H]([C@@H](C)O)NC(=O)[C@H](CC(=O)O)NC(=O)[C@H](CO)NC(=O)[C@H](CCCNC(=N)N)N(C)C(=O)c2ccccc2CSC(C)(C)[C@@H](C(=O)N[C@@H](Cc2c[nH]c3ccccc23)C(=O)N[C@H](CCC(=O)O)C(=O)N[C@@H](Cc2ccccc2)C(N)=O)NC1=O` [compound 101] (HELM PEPTIDE1{[meR].S.D.T.L.[Pen].W.[dE].F.[am]}|CHEM1{[O=C(c1ccccc1C[*:2])[*:1]]}$PEPTIDE1,CHEM1,1:R1-1:R1|PEPTIDE1,CHEM1,6:R3-1:R2$$$V2.0): 0.1 to 1 µM.

Take `CC(C)C[C@@H]1NC(=O)[C@H]([C@@H](C)O)NC(=O)[C@H](CC(=O)O)NC(=O)[C@H](CO)NC(=O)[C@H](CCCNC(=N)N)N(C)C(=O)c2ccccc2CSC(C)(C)[C@@H](C(=O)N[C@@H](Cc2c[nH]c3ccccc23)C(=O)N[C@H](CCC(=O)O)C(=O)N[C@@H](Cc2c[nH]cn2)C(N)=O)NC1=O` [compound 102] (HELM PEPTIDE1{[meR].S.D.T.L.[Pen].W.[dE].H.[am]}|CHEM1{[O=C(c1ccccc1C[*:2])[*:1]]}$PEPTIDE1,CHEM1,1:R1-1:R1|PEPTIDE1,CHEM1,6:R3-1:R2$$$V2.0): the IC50 lay within 0.025 to 0.1 µM. `CC(C)C[C@@H]1NC(=O)[C@H]([C@@H](C)O)NC(=O)[C@H](CC(=O)O)NC(=O)[C@H](CO)NC(=O)[C@H](CCCNC(=N)N)N(C)C(=O)c2ccccc2CSC(C)(C)[C@@H](C(=O)N[C@@H](Cc2c[nH]c3ccccc23)C(=O)N[C@H](CCC(=O)O)C(=O)N[C@@H](Cc2ccc(O)cc2)C(N)=O)NC1=O` [compound 104] (HELM PEPTIDE1{[meR].S.D.T.L.[Pen].W.[dE].Y.[am]}|CHEM1{[O=C(c1ccccc1C[*:2])[*:1]]}$PEPTIDE1,CHEM1,1:R1-1:R1|PEPTIDE1,CHEM1,6:R3-1:R2$$$V2.0): the IC50 lay within 0.025 to 0.1 µM.

On to `CC(C)C[C@@H]1NC(=O)[C@H]([C@@H](C)O)NC(=O)[C@H](CC(=O)O)NC(=O)[C@H](CO)NC(=O)[C@H](CCCNC(=N)N)N(C)C(=O)c2ccccc2CSC(C)(C)[C@@H](C(=O)N[C@@H](Cc2c[nH]c3ccccc23)C(=O)N[C@H](CCC(=O)O)C(=O)N[C@H](CO)C(N)=O)NC1=O` [compound 106] (HELM PEPTIDE1{[meR].S.D.T.L.[Pen].W.[dE].[dS].[am]}|CHEM1{[O=C(c1ccccc1C[*:2])[*:1]]}$PEPTIDE1,CHEM1,1:R1-1:R1|PEPTIDE1,CHEM1,6:R3-1:R2$$$V2.0), for which the IC50 lay within 0.025 to 0.1 µM. With `CC(C)C[C@@H]1NC(=O)[C@H]([C@@H](C)O)NC(=O)[C@H](CC(=O)O)NC(=O)[C@H](CO)NC(=O)[C@H](CCCNC(=N)N)N(C)C(=O)c2ccccc2CSC(C)(C)[C@@H](C(=O)N[C@@H](Cc2c[nH]c3ccccc23)C(=O)N[C@H](CCC(=O)O)C(=O)N[C@H](Cc2ccccc2)C(N)=O)NC1=O` [compound 107] (HELM PEPTIDE1{[meR].S.D.T.L.[Pen].W.[dE].[dF].[am]}|CHEM1{[O=C(c1ccccc1C[*:2])[*:1]]}$PEPTIDE1,CHEM1,1:R1-1:R1|PEPTIDE1,CHEM1,6:R3-1:R2$$$V2.0), the IC50 lay within 0.025 to 0.1 µM. For `CC(C)C[C@@H]1NC(=O)[C@H]([C@@H](C)O)NC(=O)[C@H](CC(=O)O)NC(=O)[C@H](CO)NC(=O)[C@H](CCCNC(=N)N)N(C)C(=O)c2ccccc2CSC(C)(C)[C@@H](C(=O)N[C@@H](Cc2c[nH]c3ccccc23)C(=O)N[C@H](CCC(=O)O)C(=O)N[C@H](CCC(=O)O)C(N)=O)NC1=O` [compound 108] (HELM PEPTIDE1{[meR].S.D.T.L.[Pen].W.[dE].[dE].[am]}|CHEM1{[O=C(c1ccccc1C[*:2])[*:1]]}$PEPTIDE1,CHEM1,1:R1-1:R1|PEPTIDE1,CHEM1,6:R3-1:R2$$$V2.0), the IC50 is 0.025 to 0.1 µM. For the compound `CC(C)C[C@@H]1NC(=O)[C@H]([C@@H](C)O)NC(=O)[C@H](CC(=O)O)NC(=O)[C@H](CO)NC(=O)[C@H](CCCNC(=N)N)N(C)C(=O)c2ccccc2CSC(C)(C)[C@@H](C(=O)N[C@@H](Cc2c[nH]c3ccccc23)C(=O)N[C@H](CCC(=O)O)C(=O)N[C@H](Cc2ccc(O)cc2)C(N)=O)NC1=O` [compound 110] (HELM PEPTIDE1{[meR].S.D.T.L.[Pen].W.[dE].[dY].[am]}|CHEM1{[O=C(c1ccccc1C[*:2])[*:1]]}$PEPTIDE1,CHEM1,1:R1-1:R1|PEPTIDE1,CHEM1,6:R3-1:R2$$$V2.0), the IC50 was 0.025 to 0.1 µM. On to `CC(C)C[C@@H]1NC(=O)[C@H]([C@@H](C)O)NC(=O)[C@H](CC(=O)O)NC(=O)[C@H](CO)NC(=O)[C@H](CCCNC(=N)N)N(C)C(=O)c2ccccc2CSC(C)(C)[C@@H](C(=O)N[C@@H](Cc2c[nH]c3ccccc23)C(=O)N[C@H](CCC(=O)O)C(=O)N[C@@H](CCC(=O)O)C(N)=O)NC1=O` [compound 113] (HELM PEPTIDE1{[meR].S.D.T.L.[Pen].W.[dE].E.[am]}|CHEM1{[O=C(c1ccccc1C[*:2])[*:1]]}$PEPTIDE1,CHEM1,1:R1-1:R1|PEPTIDE1,CHEM1,6:R3-1:R2$$$V2.0), for which the IC50 was 0.025 to 0.1 µM. Take `CC(C)C[C@@H]1NC(=O)[C@H]([C@@H](C)O)NC(=O)[C@H](CC(=O)O)NC(=O)[C@H](CO)NC(=O)[C@H](CCCNC(=N)N)N(C)C(=O)c2ccccc2CSC(C)(C)[C@@H](C(=O)N[C@@H](Cc2ccc3ccccc3c2)C(=O)N[C@H](CCC(=O)O)C(N)=O)NC1=O` [compound 114] (HELM PEPTIDE1{[meR].S.D.T.L.[Pen].[O=C([C@H](Cc1ccc2ccccc2c1)N[*:1])[*:2]].[dE].[am]}|CHEM1{[O=C(c1ccccc1C[*:2])[*:1]]}$PEPTIDE1,CHEM1,1:R1-1:R1|PEPTIDE1,CHEM1,6:R3-1:R2$$$V2.0): the IC50 fell in the range of 0.025 to 0.1 µM. On to `CC(C)C[C@@H]1NC(=O)[C@H]([C@@H](C)O)NC(=O)[C@H](CC(=O)O)NC(=O)[C@H](CO)NC(=O)[C@H](CCCNC(=N)N)N(C)C(=O)c2ccccc2CSC(C)(C)[C@@H](C(=O)N[C@@H](Cc2ccc3ccccc3c2)C(N)=O)NC1=O` [compound 116] (HELM PEPTIDE1{[meR].S.D.T.L.[Pen].[O=C([C@H](Cc1ccc2ccccc2c1)N[*:1])[*:2]].[am]}|CHEM1{[O=C(c1ccccc1C[*:2])[*:1]]}$PEPTIDE1,CHEM1,1:R1-1:R1|PEPTIDE1,CHEM1,6:R3-1:R2$$$V2.0), for which the IC50 was in the range of 0.025 to 0.1 µM.

Consider `CC(C)C[C@@H]1NC(=O)[C@H]([C@@H](C)O)NC(=O)[C@H](CC(=O)O)NC(=O)[C@H](CO)NC(=O)[C@H](CCCNC(=N)N)N(C)C(=O)c2ccccc2CSC(C)(C)[C@@H](C(=O)N[C@@H](Cc2ccc(-c3ccccc3)cc2)C(=O)N[C@@H](CCC(=O)O)CC(N)=O)NC1=O` [compound 133] ([NMeR]SDTL[Pen][Bip][β3hE]-NH2; linker N-6 via X1), for which the IC50 was under 0.025 µM.
